Source: ChEMBL document CHEMBL1147209, “Relationship between quantum-chemical descriptors of proton dissociation and experimental acidity constants of various hydroxylated coumarins. Identification of the biologically active species for xanthine oxidase inhibition” (Eur J Med Chem, 2007)

Target: Xanthine dehydrogenase/oxidase (Homo sapiens, UniProt P47989)
Test: Inhibition of xanthine oxidase; call rule not given here

Chain of Xanthine dehydrogenase/oxidase (P47989 whole entry): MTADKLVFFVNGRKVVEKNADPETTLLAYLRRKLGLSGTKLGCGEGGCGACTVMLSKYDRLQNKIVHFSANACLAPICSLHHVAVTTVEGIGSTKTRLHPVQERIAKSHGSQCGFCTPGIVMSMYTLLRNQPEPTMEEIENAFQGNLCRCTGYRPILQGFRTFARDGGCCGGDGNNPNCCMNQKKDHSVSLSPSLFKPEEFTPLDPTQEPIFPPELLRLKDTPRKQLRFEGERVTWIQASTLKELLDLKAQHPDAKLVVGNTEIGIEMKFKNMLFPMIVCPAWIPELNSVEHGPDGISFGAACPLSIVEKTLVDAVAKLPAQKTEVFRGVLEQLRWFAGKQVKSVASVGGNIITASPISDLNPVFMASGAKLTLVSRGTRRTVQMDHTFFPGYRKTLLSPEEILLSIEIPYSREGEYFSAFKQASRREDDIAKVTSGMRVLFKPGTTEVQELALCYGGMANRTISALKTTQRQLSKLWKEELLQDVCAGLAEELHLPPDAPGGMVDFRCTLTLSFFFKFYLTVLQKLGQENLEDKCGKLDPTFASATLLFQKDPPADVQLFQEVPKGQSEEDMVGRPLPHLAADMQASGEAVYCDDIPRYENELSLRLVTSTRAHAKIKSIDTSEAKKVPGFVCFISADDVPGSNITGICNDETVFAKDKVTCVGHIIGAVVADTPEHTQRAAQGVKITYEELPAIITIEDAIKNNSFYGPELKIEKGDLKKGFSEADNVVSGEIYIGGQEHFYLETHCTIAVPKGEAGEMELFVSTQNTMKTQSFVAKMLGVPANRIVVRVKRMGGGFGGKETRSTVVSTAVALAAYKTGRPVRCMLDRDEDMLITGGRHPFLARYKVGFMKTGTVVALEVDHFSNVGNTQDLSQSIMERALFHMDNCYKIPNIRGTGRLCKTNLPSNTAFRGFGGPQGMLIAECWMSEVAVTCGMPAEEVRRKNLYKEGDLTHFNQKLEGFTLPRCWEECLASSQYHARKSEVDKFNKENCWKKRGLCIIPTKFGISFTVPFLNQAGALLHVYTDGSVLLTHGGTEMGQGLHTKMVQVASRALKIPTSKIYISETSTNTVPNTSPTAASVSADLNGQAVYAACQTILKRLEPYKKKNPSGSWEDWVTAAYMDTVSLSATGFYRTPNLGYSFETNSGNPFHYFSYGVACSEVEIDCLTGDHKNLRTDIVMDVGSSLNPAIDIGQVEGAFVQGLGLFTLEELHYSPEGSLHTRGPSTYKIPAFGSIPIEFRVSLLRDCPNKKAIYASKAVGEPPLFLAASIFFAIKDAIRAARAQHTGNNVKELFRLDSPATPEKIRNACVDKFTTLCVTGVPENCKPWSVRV

Compound	Activity	IC50
COc1cc2ccc(=O)oc2cc1O [SCOPOLETIN]	Not Active	–
Cc1cc(=O)oc2cc(O)c(O)cc12 [4-METHYLESCULETIN]	–	246 µM
O=c1ccc2ccc(O)c(O)c2o1 [DAPHNETIN]	–	390 µM
O=c1cc(O)c2ccccc2o1 [4-HYDROXYCOUMARINS]	–	195 µM
O=c1oc2ccccc2cc1O [3-HYDROXYCOUMARIN]	–	131 µM
O=c1ccc2cc(O)c(O)cc2o1 [ESCULETIN]	–	8.2 µM
COc1cc2oc(=O)ccc2cc1O [ISOSCOPOLETIN]	–	138 µM
O=c1ccc2ccc(O)cc2o1 [UMBELLIFERONE]	–	236 µM
